# Where two headings read alike, the source gives them in different places.
# Tests used:
# [1] = tested on: K562 (human chronic myelogenous leukemia) cells; assay: Cell viability, Cell Titer Glo 2.0 assay, K562 cells; assay type: cell-based; conditions: 72 hours
# Outline: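 K562 cells seeded at 500 cells/well in IMDM + 10% FBS; compounds serially diluted in DMSO, then 1:100 in medium (final DMSO 0.1%). Incubated 72 h at 37° C, 5% CO2; viability read by Cell Titer Glo 2.0 luminescence against medium-only blank.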
# HTT mRNA = assay: Splicing RT-qPCR assay, HTT canonical (CJ) and alternative (AJ) junction mRNA; assay type: cell-based; conditions: Homo sapiens; for EC50: AC50 = 50% response in AJ mRNA increase
# Outline: (§1)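 Junction-specific RT-qPCR read-out: CJ marks canonical transcript, AJ marks alternative-exon inclusion, each normalized to GAPDH, GUSB or PPIA. Cells (A673 or K562) were dosed for 24 h with compound up to 10 uM final in 11 3-fold steps. RQ from 2^(−ΔΔCt) against DMSO became percentage response.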
# Target C = assay: HiBiT protein abundance assay, Target C (K562 HiBiT knock-in cells); assay type: cell-based, human; conditions: 24 hours treatment
# Outline: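 K562 HiBiT knock-in cells (10000/well) were treated 24 h at 37 °C with a 10-point 3-fold dilution series, top final concentration […], DMSO ≤0.25%. Target abundance was read by lytic HiBiT luminescence and normalized to unmodified K562 and DMSO controls. A four-parameter fit gave the concentration giving 50% of untreated abundance.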
# HiBiT-tagged MYB protein = assay: HiBiT protein abundance assay, MYB (K562 HiBiT knock-in cells); assay type: cell-based, human; conditions: 24 hours treatment
# Outline: (§2)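 K562 cells carrying endogenous HiBiT-tagged targets were treated 24 h at 37 °C with 10-point 3-fold dilutions from 10 µM final (≤0.25% DMSO). Abundance read by lytic HiBiT luminescence, normalized to DMSO and unmodified-K562 controls; IC50 is the 4-parameter-fit concentration giving 50% of untreated signal.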
# Target C mRNA = assay: Splicing RT-qPCR gene panel, Target C canonical junction (CJ) mRNA; assay type: cell-based; conditions: Homo sapiens; Table 8; larger gene panel, decrease in CJ mRNA levels
# Outline: as §1
# HiBiT-tagged HTT protein = assay: HiBiT protein abundance assay, HTT (K562 HiBiT knock-in cells); assay type: cell-based, human; conditions: 24 hours treatment
# Outline: as §2
# MYB mRNA = assay: Splicing RT-qPCR assay, MYB canonical (CJ) and alternative (AJ) junction mRNA; assay type: cell-based; conditions: Homo sapiens; for EC50: AC50 = 50% response in AJ mRNA increase
# Outline: as §1
# SMN2 mRNA = assay: Splicing RT-qPCR gene panel, SMN2 canonical junction (CJ) mRNA; assay type: cell-based; conditions: Homo sapiens; Table 8; larger gene panel, decrease in CJ mRNA levels
# Outline: as §1
# [2] = Table 7, RT-qPCR, A673 or K562 cells, 24 hours treatment
# [3] = Table 7, IC50 = 50% response in CJ mRNA decrease, RT-qPCR, A673 or K562 cells, 24 hours treatment, read-out: HTT CJ
# [4] = Table 8, larger gene panel, decrease in CJ mRNA levels, read-out: HTT CJ IC50
# [5] = Table 7, IC50 = 50% response in CJ mRNA decrease, RT-qPCR, A673 or K562 cells, 24 hours treatment, read-out: MYB CJ
# [6] = Table 8, larger gene panel, decrease in CJ mRNA levels, read-out: MYB CJ IC50
IC50 [1],EC50 (HTT mRNA; [2]),IC50 (HTT mRNA; [3]),IC50 (HTT mRNA; [4]),IC50 (Target C),IC50 (HiBiT-tagged MYB protein),IC50 (Target C mRNA),IC50 (HiBiT-tagged HTT protein),EC50 (MYB mRNA; [2]),IC50 (MYB mRNA; [5]),IC50 (MYB mRNA; [6]),IC50 (SMN2 mRNA),SMILES
1000 to 10000 nM,100 to 1000 nM,100 to 1000 nM,100 to 1000 nM,100 to 1000 nM,1000 to 10000 nM,1000 to 10000 nM,100 to 1000 nM,100 to 1000 nM,1000 to 10000 nM,100 to 1000 nM,100 to 1000 nM,Cc1cn2cc(-n3cc4sc(C5CCNCC5)cc4n3)cc(Cl)c2n1 [Compound 172]
1000 to 10000 nM,100 to 1000 nM,100 to 1000 nM,100 to 1000 nM,1000 to 10000 nM,1000 to 10000 nM,1000 to 10000 nM,100 to 1000 nM,1000 to 10000 nM,1000 to 10000 nM,1000 to 10000 nM,100 to 1000 nM,Cc1cn2cc(-c3cc4cn(C5CCNCC5)nc4s3)nc(C)c2n1 [Compound 228]
1000 to 10000 nM,> 10000 nM,> 10000 nM,> 10000 nM,> 10000 nM,1000 to 10000 nM,> 10000 nM,1000 to 10000 nM,> 10000 nM,> 10000 nM,> 10000 nM,1000 to 10000 nM,Cn1cc2c(F)cc(-n3cc4cc(C5CCNCC5)sc4n3)cc2n1 [Compound 174]
1000 to 10000 nM,1000 to 10000 nM,1000 to 10000 nM,1000 to 10000 nM,1000 to 10000 nM,1000 to 10000 nM,1000 to 10000 nM,1000 to 10000 nM,1000 to 10000 nM,1000 to 10000 nM,1000 to 10000 nM,1000 to 10000 nM,Cn1cc2cc(-n3cc4cc(C5CCNCC5)sc4n3)c(O)cc2n1 [Compound 220]
1000 to 10000 nM,1000 to 10000 nM,1000 to 10000 nM,1000 to 10000 nM,1000 to 10000 nM,1000 to 10000 nM,1000 to 10000 nM,100 to 1000 nM,1000 to 10000 nM,1000 to 10000 nM,1000 to 10000 nM,100 to 1000 nM,Cn1cc2cc(-c3cc4cn(C5CCNCC5)nc4s3)c(C#N)cc2n1 [Compound 211]
1000 to 10000 nM,1000 to 10000 nM,1000 to 10000 nM,1000 to 10000 nM,> 10000 nM,1000 to 10000 nM,> 10000 nM,1000 to 10000 nM,1000 to 10000 nM,1000 to 10000 nM,1000 to 10000 nM,100 to 1000 nM,Cn1cc2cc(-c3cc4cn(C5CNC5)nc4s3)cc(F)c2n1 [Compound 184]
> 10000 nM,1000 to 10000 nM,1000 to 10000 nM,1000 to 10000 nM,1000 to 10000 nM,1000 to 10000 nM,> 10000 nM,1000 to 10000 nM,1000 to 10000 nM,> 10000 nM,> 10000 nM,1000 to 10000 nM,Cc1cc(-n2cc3nc(C4CCNCC4)sc3n2)cc2cn(C)nc12 [Compound 1106]
100 to 1000 nM,< 100 nM,< 100 nM,< 100 nM,100 to 1000 nM,100 to 1000 nM,100 to 1000 nM,< 100 nM,1000 to 10000 nM,100 to 1000 nM,1000 to 10000 nM,< 100 nM,Cc1cn2cc(-n3cc4cc(C5CCNCC5)sc4n3)cc(Cl)c2n1 [Compound 165]
1000 to 10000 nM,100 to 1000 nM,100 to 1000 nM,100 to 1000 nM,100 to 1000 nM,100 to 1000 nM,100 to 1000 nM,< 100 nM,100 to 1000 nM,100 to 1000 nM,100 to 1000 nM,< 100 nM,"Cc1cn2nc(-c3cc4cn(C5CCNCC5)nc4s3)cc(C)c2n1 [Compound 162, 4-(5-{2,8-dimethylimidazo[1,2-b]pyridazin-6-yl}thieno[2,3-c]pyrazol-2-yl)piperidine]"
1000 to 10000 nM,100 to 1000 nM,100 to 1000 nM,100 to 1000 nM,100 to 1000 nM,100 to 1000 nM,100 to 1000 nM,< 100 nM,100 to 1000 nM,100 to 1000 nM,100 to 1000 nM,< 100 nM,"Cn1cc2cc(-c3nc4cn(C5CCNCC5)nc4s3)cc(F)c2n1 [Compound 1100, 7-fluoro-2-methyl-5-[2-(piperidin-4-yl)pyrazolo[4,3-d][1,3]thiazol-5-yl]indazole]"
1000 to 10000 nM,100 to 1000 nM,< 100 nM,100 to 1000 nM,1000 to 10000 nM,1000 to 10000 nM,100 to 1000 nM,100 to 1000 nM,100 to 1000 nM,100 to 1000 nM,100 to 1000 nM,< 100 nM,Cn1cc2cc(-c3cc4cn([C@H]5CCNC[C@@H]5F)nc4s3)cc(F)c2n1 [Compound 190]
100 to 1000 nM,100 to 1000 nM,100 to 1000 nM,100 to 1000 nM,100 to 1000 nM,100 to 1000 nM,1000 to 10000 nM,< 100 nM,1000 to 10000 nM,1000 to 10000 nM,1000 to 10000 nM,< 100 nM,Cc1cn2cc(-n3cc4cc(C5CCNCC5)sc4n3)cc(C)c2n1 [Compound 155]
1000 to 10000 nM,1000 to 10000 nM,1000 to 10000 nM,1000 to 10000 nM,1000 to 10000 nM,1000 to 10000 nM,1000 to 10000 nM,1000 to 10000 nM,1000 to 10000 nM,1000 to 10000 nM,1000 to 10000 nM,1000 to 10000 nM,Cc1cn2cc(-n3cc4sc(C5CCNCC5)cc4n3)ncc2n1 [Compound 169]
> 10000 nM,> 10000 nM,> 10000 nM,> 10000 nM,> 10000 nM,> 10000 nM,> 10000 nM,> 10000 nM,> 10000 nM,> 10000 nM,> 10000 nM,> 10000 nM,"Cn1cc2cc(-c3cc4cn(C5CCOCC5)nc4s3)cc(F)c2n1 [Compound 161, 7-fluoro-2-methyl-5-[2-(oxan-4-yl)thieno[2,3-c]pyrazol-5-yl]indazole]"
1000 to 10000 nM,1000 to 10000 nM,100 to 1000 nM,1000 to 10000 nM,1000 to 10000 nM,1000 to 10000 nM,1000 to 10000 nM,1000 to 10000 nM,1000 to 10000 nM,1000 to 10000 nM,1000 to 10000 nM,100 to 1000 nM,"Cc1cn2nc(-n3cc4sc(N5CC6(CN(C)C6)C5)cc4n3)cc(C)c2n1 [Compound 188, 2-(2-{2,8-dimethylimidazo[1,2-b]pyridazin-6-yl}thieno [3,2-c]pyrazol-5-yl)-6-methyl-2,6-diazaspiro [3.3]heptane]"
1000 to 10000 nM,100 to 1000 nM,100 to 1000 nM,100 to 1000 nM,100 to 1000 nM,100 to 1000 nM,1000 to 10000 nM,100 to 1000 nM,1000 to 10000 nM,1000 to 10000 nM,1000 to 10000 nM,100 to 1000 nM,Cc1nc2c(F)cc(-n3cc4sc(C5CCNCC5)cc4n3)cc2o1 [Compound 167]
100 to 1000 nM,< 100 nM,< 100 nM,< 100 nM,< 100 nM,100 to 1000 nM,100 to 1000 nM,< 100 nM,100 to 1000 nM,100 to 1000 nM,100 to 1000 nM,< 100 nM,Cc1cn2cc(-c3cc4cn(C5CCNCC5)nc4s3)cc(F)c2n1 [Compound 229]
100 to 1000 nM,< 100 nM,< 100 nM,< 100 nM,1000 to 10000 nM,< 100 nM,< 100 nM,1000 to 10000 nM,< 100 nM,< 100 nM,< 100 nM,< 100 nM,"Cc1c(O)c(-c2nc3cn(C4CCNCC4)nc3s2)cc2cn(C)nc12 [Compound 1108, 2,7-dimethyl-5-(2-(piperidin-4-yl)-2H-pyrazolo[4,3-d]thiazol-5-yl)-2H-indazol-6-ol]"
1000 to 10000 nM,1000 to 10000 nM,1000 to 10000 nM,1000 to 10000 nM,1000 to 10000 nM,1000 to 10000 nM,1000 to 10000 nM,1000 to 10000 nM,1000 to 10000 nM,1000 to 10000 nM,1000 to 10000 nM,1000 to 10000 nM,COc1c(-c2nc3cn(C4CCNCC4)nc3s2)cc2cn(C)nc2c1C [Compound 1103]
